Results reported in US20100239652A1, “IMMUNOLIPOSOMES FOR TREATMENT OF CANCER” (UNIVERSITATSSPITAL BASEL, priority 2008, published 2010).
Converted amounts (≈) assume the structure as drawn.

B1: EMD72000-ILs-dox (conjugate, chains of the INN, looked up)
VH: QVQLVQSGAEVKKPGASVKVSCKASGYTFTSHWMHWVRQAPGQGLEWIGEFNPSNGRTNYNEKFKSKATMTVDTSTNTAYMELSSLRSEDTAVYYCASRDYDYDGRYFDYWGQGTLVTVSS
VL: DIQMTQSPSSLSASVGDRVTITCSASSSVTYMYWYQQKPGKAPKLLIYDTSNLASGVPSRFSGSGSGTDYTFTISSLQPEDIATYYCQQWSSHIFTFGQGTKVEIK
modifications: doxorubicin-loaded immunoliposomes

How the values were obtained:
[1] = tested on: MDA-MB-231/mdr cells; experiment: Accumulation of doxorubicin in the cytoplasma and nuclei; type: cell-based, human; conditions: multidrug resistant tumor cells
Description: For comparative accumulation studies, tumor cells (HT-29, HT-29 ROB, MDA-MB-231 or MDA-MB-231 Vb100) have been plated at a density of 200,000 cells per well in 12-well plates. Free doxorubicin, non-targeted liposomal doxorubicin (PLD) and immunoliposomal doxorubicin have been applied at a doxorubicin concentration of 3 μg/ml for 2 h at 37° C., followed by 2 washing rounds with media. Verapamil was added to the experiment in a concentration of 0, 10 or 100 μM. After another 2 h incubation without any treatment cells were analyzed as follows:
After removing the media, cells were washed once with 1 ml of culture medium containing FCS, followed by 1 ml of PBS with calcium and magnesium at room temperature (RT) for 3 min. […] For nuclear accumulation of doxorubicin the pellet with the nuclei was washed twice with 500 μl PBS containing 1% C100T and using subsequent centrifugation as described before. After careful removing of the final supernatant, doxorubicin from the pellets was extracted overnight by 400 μl 50% acid methanol.
From both cytoplasmic and nuclear extracts, 300 μl were transferred into a 96-well plate and measured by a “SpertraMax Gemini Fluorimeter” (Molecular Devices).

[2] = tested on: MDA-MB-231 wild type xenograft; experiment: Tumor xenograft model, wild type; type: in vivo; conditions: for antitumor effect (tumor growth): i.v. 10 mg doxorubicin/kg once weekly for 3 weeks, total 30 mg dox/kg, compared to saline
Description: (§1) Efficacy for non-targeted liposomes versus anti-EGFR immunoliposomes were studied in the MDA-MB-231 wild type and resistant breast cancer xenograft tumor model. Swiss nu/nu mice (5-6 weeks; Charles River, France) were injected subcutaneously (s.c.) with EGFR-overexpressing MDA-MB-231 tumor cells (1×10^7 cells, wild type or resistant) into the back of the animal. […] Free drug was injected on the same schedule as liposomes or immunoliposomes intravenously at their MTD of 30 mg dox/kg for doxorubicin. In control groups, saline was administered intravenously at the same injection volume and schedule.
(§2) Tumor growth was monitored for a period of 55-100 days post tumor implantation. Mice were weighted and examined for toxicity three times a week. Tumor measurements were performed 2-3 times weekly using a caliper, and tumor volumes were calculated using the equation: (length × width^2)/2.
In the wild-type MDA-MB-231 xenograft model lacking mdr features, anti-EGFR immunoliposome-dox was administered i.v. at a total dose of 30 mg dox/kg divided into three weekly doses of 10 mg/kg. […] Control treatments included: saline; free doxorubicin and non-targeted liposomal doxorubicin (commercial pegylated liposomal doxorubicin; PLD) at the same dose and schedule as immunoliposomes.
(§3) In addition, a multivariate (rank) test was performed based on the sums of ranks for each mouse. Tumor size at each time point after last treatment was ranked across all mice for that day and the ranks were summed. The sum of the ranks was compared in each case for two treatments by a 2-sample t-test (42).

[3] = tested on: MDA-MB-231 Vb100 xenograft; experiment: Tumor xenograft model, multi-drug resistant; type: in vivo; conditions: i.v. 10 mg doxorubicin/kg once weekly for 3 weeks, total 30 mg dox/kg, compared to saline
Description: as §1, §2
Comparators included saline, free doxorubicin and non-targeted liposomal doxorubicin (commercial pegylated liposomal doxorubicin; PLD) at the same dose and schedule as immunoliposomes.
as §3

[4] = tested on: HT-29 WT; experiment: Cytotoxicity study, MTT staining; type: cell-based, human
Description: (§4) Specific cytotoxicity of EGFR-targeted immunoliposomes containing doxorubicin was evaluated in target cells plated at a density of 8,000 cells per well in 96-well plates and allowed to grow overnight. Immunoliposomes or control treatments were applied for 2 h at 37° C., followed by washing with PBS and re-adding growth media. Cells were further incubated at 37 DC for 3 days and analyzed for cell viability using 3-(4,5-dimethylthiazol-2-yl)-2,5-diphenyl tetrazolium bromide (MTT) staining (41). For the cytotoxicity studies using the efflux pump inhibitor verapamil, this compound was added to the media at a concentration of 100 μM during the complete experiment.

[5] = tested on: MDA-MB-231 Vb100; experiment: Cytotoxicity study, MTT staining; type: cell-based, human
Description: as §4

[6] = tested on: HT-29 RDB; experiment: Cytotoxicity study, MTT staining; type: cell-based, human
Description: as §4

| Molecule | intracellular distribution [1] | antitumor effect (tumor growth) [2] | antitumor effect (tumor growth) [3] | antitumor effect (tumor growth) ([3]; listed as free doxorubicin) | IC50 ([4]; non-resistant HT-29 cells, summary in description) | IC50 ([4]; treatment for 2 h, MTT after 3 days) | IC50 ([5]; highly drug resistant, 2 h treatment, MTT after 3 days) | IC50 ([5]; in the presence of verapamil (100 μM)) | IC50 ([6]; HT-29/mdr cells, summary in description) | IC50 ([6]; treatment for 2 h, MTT after 3 days, multi-drug resistant sub cell line) | tumor regrowth during follow-up ([2]; after day 77 until end of observation (day 100)) |
| --- | --- | --- | --- | --- | --- | --- | --- | --- | --- | --- | --- |
| COc1cccc2c1C(=O)c1c(O)c3c(c(O)c1C2=O)C[C@@](O)(C(=O)CO)C[C@@H]3O[C@H]1C[C@H](N)[C@H](O)[C@H](C)O1 [free dox, doxorubicin] | efficiently pumped out | some tumor growth inhibition | failed to show any activity | did not show any tumor growth inhibition | 0.36 μg dox/ml | 0.3 µg/mL (≈ 0.552 µM) | 130 µg/mL (≈ 239 µM) | 0.9 µg/mL | 6.0 μg dox/ml | 9.5 µg/mL (≈ 17.5 µM) |  |
| B1 |  | substantial tumor regressions | substantial tumor regressions |  |  |  |  |  |  |  | did not show growth activity |
